{"source": "patent US20250262336A1", "about": "“[177LU] LUTETIUM-PSMA I&T COMPOSITION AND DOSIMETRY, KIT, METHOD OF MAKING, AND METHOD OF USING THEREOF” (Curium US LLC, priority 2023, published 2025)", "key": {"[1]": {"test": "Cycle 1 plasma PK (gamma counting of plasma, bi-exponential fit)", "assay_type": "in vivo, human", "method": "Additionally, for PK assessment, whole blood samples were collected at six timepoints (Pre-Infusion, 1 h, 4 h, 24 h, 48 h, and 168 h) and processed to extract plasma. All plasma samples were gamma counted locally for analysis of pharmacokinetics.\nPK plasma samples were collected at pre-Infusion, 1 h, 4 h, 24 h, 48 h, and 168 h, and counted for radioactivity. Blood samples were first centrifuged to extract plasma, and then the radioactivity in plasma was counted in a gamma counter.\n(§1) Whole blood samples were collected as detailed in the protocol Schedule of Events i.e. pre-injection, and then at 1 h, 4 h, 24 h, 48 h, and 168 h post-injection. The samples were first centrifuged to separate plasma, and the radioactivity in the plasma was then measured using a gamma counter. Plasma concentrations were subsequently fitted with a bi-exponential function to derive outcome parameters such as the half-life and clearance rate of the radiopharmaceutical in the plasma.\nFor each sample, collect sufficient sample volume for triplicate aliquots to meet the measurement requirements of your institution's gamma counter and perform measurements according to standard procedure. Blood will be processed and plasma will be measured on the gamma counter, as described in the following subsections.\nAll blood samples drawn must be aliquoted 3 times, labeled appropriately, and stored per standard procedure for later measurement of plasma in the qualified gamma counter. All samples will be counted as a group for each patient for each Cycle, no later than 24 hours following the final sample collection.\nCollect 5 ml of blood in a BD PPT system (Plasma Protein Preservation Tube-draw volume of 5 mL).\nCentrifuge at 18-25° C. at 1100 g for 10 min. The resulting supernatant is designated plasma.\nGamma Counter Measurements: All patient samples must be counted for 60 seconds, with a counting energy window of 102-229 keV."}, "[2]": {"test": "Cycle 3 plasma PK modelling", "assay_type": "in vivo, human", "settings": "n = 15", "method": "as §1\n(§2) Blood samples were obtained for 15 out of 16 patients at cycle 3. Patients 12-004 had blood taken only at the 24 h timepoint and, therefore, was not included in the plasma PK analysis. Consistent with Cycle 1, the time-course of plasma concentrations was similar among the patients. The ranges of PK parameters obtained at cycle 3 were similar to those from Cycle 1 data (Tables 9A and 9B).\nas §2, with “(Table 29). See Table 29) Cycle 3 PK plasma modeling results (n15)” for “(Tables 9A and 9B).”"}, "[3]": {"settings": "Cycle 1, plasma, patient 42-030 excluded"}}, "note": "Values joined by “and” are separate entries in the source; they are usually repeats but may differ in a detail not shown here. Equal entries are not always repeated."}
{"smiles": "O=C(O)CC[C@H](NC(=O)N[C@@H](CCCCNC(=O)CCCCCCC(=O)NCCCC[C@@H](NC(=O)[C@@H](Cc1ccccc1)NC(=O)[C@@H](Cc1ccc(O)c(I)c1)NC(=O)CC[C@H](C(=O)O)N1CCN(CC(=O)O)CCN(CC(=O)O)CCN(CC(=O)O)CC1)C(=O)O)C(=O)O)C(=O)O", "note": "[^177Lu-PSMA-I&T, (3S,7 S,26R,29R,32R,37R)-29-benzyl-32-(4-hydroxy-3-iodobenzyl)-5,13,20,28,31,34-hexaoxo-37-(4,7,10-tris(carboxymethyl)-1,4,7,10-tetraazacyclododecan-1-yl)-4,6,12,21,27,30,33-heptaazaheptatriacontane-1,3,7,26,37-pentacarboxylic acid; lutetium-177 (III), metal not drawn]", "values": [{"measurement": "Time of Peak Concentration", "setting": "[1]; Cycle 1, plasma, individual patients, time of first sample", "value": "53.00 min and 60.00 min (6×) and 51.00 min (2×) and 58.00 min and 61.00 min (2×) and 50.00 min and 63.00 min and 57.00 min and 55.00 min and 52.00 min (2×) and 68.00 min and 71.00 min and 65.00 min and 33.00 min and 40.00 min and 69.00 min and 56.00 min and 127.00 min and 47.00 min"}, {"measurement": "Peak Concentration Value", "setting": "[1]; Cycle 1, plasma, individual patients, value at first sample", "value": "0.04 fIA/L (10×) and 0.03 fIA/L (4×) and 0.05 fIA/L (7×) and 0.01 fIA/L and 0.06 fIA/L (2×) and 0.02 fIA/L and 0.07 fIA/L (2×)"}, {"measurement": "AUC Total, Mean", "setting": "[1]; [3]", "value": 22.77, "unit": "fIA/L × min"}, {"measurement": "AUC Total, max", "setting": "[1]; [3]", "value": 37.86, "unit": "fIA/L × min"}, {"measurement": "AUC Total, median", "setting": "[1]; [3]", "value": 20.84, "unit": "fIA/L × min"}, {"measurement": "AUC Total, min", "setting": "[1]; [3]", "value": 3.07, "unit": "fIA/L × min"}, {"measurement": "Peak Concentration Value, Mean", "setting": "[1]; [3]", "value": 0.04, "unit": "fIA/L"}, {"measurement": "Peak Concentration Value, max", "setting": "[1]; [3]", "value": 0.07, "unit": "fIA/L"}, {"measurement": "Peak Concentration Value, median", "setting": "[1]; [3]", "value": 0.04, "unit": "fIA/L"}, {"measurement": "Peak Concentration Value, min", "setting": "[1]; [3]", "value": 0.01, "unit": "fIA/L"}, {"measurement": "Time of Peak Concentration", "setting": "[1]; [3]", "value": 33.00, "unit": "min"}, {"measurement": "Time of Peak Concentration, Mean", "setting": "[1]; [3]", "value": 59.19, "unit": "min"}, {"measurement": "Time of Peak Concentration, max", "setting": "[1]; [3]", "value": 127.00, "unit": "min"}, {"measurement": "Time of Peak Concentration, median", "setting": "[1]; [3]", "value": 59.00, "unit": "min"}, {"measurement": "Vc, Mean", "setting": "[1]; [3]", "value": 20.29, "unit": "L"}, {"measurement": "Vc, max", "setting": "[1]; [3]", "value": 111.78, "unit": "L"}, {"measurement": "Vc, median", "setting": "[1]; [3]", "value": 16.33, "unit": "L"}, {"measurement": "Vc, min", "setting": "[1]; [3]", "value": 9.92, "unit": "L"}, {"measurement": "time to peak, patient 80-007", "setting": "[1]; cycle 1, first post-administration sample acquired with a delay", "value": 127, "unit": "min"}, {"measurement": "AUC Total, Mean", "setting": "[2]", "value": 25.58, "unit": "fIA/L × min"}, {"measurement": "AUC Total, max", "setting": "[2]", "value": 39.62, "unit": "fIA/L × min"}, {"measurement": "AUC Total, median", "setting": "[2]", "value": 24.55, "unit": "fIA/L × min"}, {"measurement": "AUC Total, min", "setting": "[2]", "value": 13.86, "unit": "fIA/L × min"}, {"measurement": "Peak Concentration Value, Mean", "setting": "[2]", "value": 0.05, "unit": "fIA/L"}, {"measurement": "Peak Concentration Value, max", "setting": "[2]", "value": 0.07, "unit": "fIA/L"}, {"measurement": "Peak Concentration Value, median", "setting": "[2]", "value": 0.04, "unit": "fIA/L"}, {"measurement": "Peak Concentration Value, min", "setting": "[2]", "value": 0.03, "unit": "fIA/L"}, {"measurement": "Time of Peak Concentration", "setting": "[2]", "value": 55.00, "unit": "min"}, {"measurement": "Time of Peak Concentration, Mean", "setting": "[2]", "value": 60.67, "unit": "min"}, {"measurement": "Time of Peak Concentration, max", "setting": "[2]", "value": 68.00, "unit": "min"}, {"measurement": "Time of Peak Concentration, median", "setting": "[2]", "value": 60.00, "unit": "min"}, {"measurement": "Vc, Mean", "setting": "[2]", "value": 16.40, "unit": "L"}, {"measurement": "Vc, max", "setting": "[2]", "value": 24.53, "unit": "L"}, {"measurement": "Vc, median", "setting": "[2]", "value": 16.42, "unit": "L"}, {"measurement": "Vc, min", "setting": "[2]", "value": 10.66, "unit": "L"}]}
